This series in a line: gradient 5% acetonitrile 3 min, to 50% in 2 min, to 85% in 15 min, held 3 min, 100 µL/min. Particulars: column: Zorbax Extend-C18 2.1 x 50 mm; eluents: water / acetonitrile, 0.1% formic acid. An outline of the steps:
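Standards, all pure, were combined into mixtures of ~100 molecules and run at 100 μL/min on a Zorbax Extend-C18 column (2.1 × 50 mm, 1.8 μm) with water and acetonitrile, each containing 0.1% formic acid. A coupled quadrupole time-of-flight mass spectrometer operated in positive and negative ionization mode. Retention time values come from computationally picked adduct peaks, each inspected manually.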
Turning to `O=C([C@@H]1C[C@H](F)CN1S(=O)(=O)Cc1ccccc1Cl)N1CCc2ccccc2C1`, the RP-LC retention time stood at 986 s. In the case of `COC(=O)c1cnc2nc(C)ccc2c1Nc1ccc(C)cc1C` it was 699 s; in that of `Cc1nnc2c(=O)n(CC(=O)NCc3cccc(Cl)c3)c3cccnc3n12`, 700 s.

For `Cn1nc(C(=O)N2CC(N(C3CCOCC3)S(C)(=O)=O)C2)c2ccccc21`, the RP-LC retention time was 698 s. In the case of `CCC(C)NC(=O)N1CCCN(C2=NS(=O)(=O)C(c3ccccc3)=C2C)CC1` (stereo not given) it was 748 s. With `COC(=O)c1ccccc1NC1=NS(=O)(=O)C(c2ccc(F)cc2)=C1C` the figure was 1050 s; with `O=C(NCc1cccs1)C(=O)c1cccn1Cc1ccc(F)cc1`, 1010 s; with `CCCNC(=O)C1CCCN(c2cc(=O)n(C)c(=O)n2C)C1` (stereo not given), 597 s. Molecule `COc1ccccc1OCCC1CCN(S(=O)(=O)Cc2ccccc2F)C1` (stereo not given) came in with an RP-LC retention time of 1030 s. With `Cc1ccc(CNC(=O)C2(C)CCCN(C(=O)Nc3cc(Cl)ccc3C)C2)cc1` (stereo not given) the figure was 1080 s; with `CCN1CCN(c2ccc(NC(=O)c3ccc(F)c(Cl)c3)cn2)C1=O`, 811 s; with `CCc1nc2c(c(=O)n1CC(=O)Nc1c(C)cccc1C)CN(Cc1ccccc1)CC2`, 645 s. With `COC(=O)c1ccc(OC)c(Cn2cnc3c(-c4ccccc4C)csc3c2=O)c1` the figure was 1060 s; with `Cn1cccc(C(=O)NC2CC(=O)N(C3CC3)C2)c1=O` (stereo not given), 547 s. In the case of `Cc1ccccc1S(=O)(=O)N1CCC2(CC1)CC(C)(O)CCO2` (stereo not given) it was 778 s; in that of `CN(CCc1noc(COc2ccccc2)n1)C(=O)c1c(F)cccc1F`, 872 s. With `O=C(NCc1ccc(F)cc1)c1cn2cc(Cl)ccc2n1`, the RP-LC retention time was 799 s. Turning to `CC(C(=O)Nc1nc2ccc(S(C)(=O)=O)cc2s1)n1nnc2ccccc2c1=O` (stereo not given), the RP-LC retention time turned out to be 706 s.

On to `Clc1ccc(-c2csc(N3CCC(c4ccccc4)C3)n2)cc1` (stereo not given), for which the RP-LC retention time worked out at 814 s. With `COc1ccc(C2(C)NC(=O)N(CC(=O)N3CCc4ccccc43)C2=O)cc1` (stereo not given) the figure was 750 s; with `Cn1cc(CC(=O)Nc2ccc(F)cc2)c2cccnc21`, 703 s. With `CC(C)Oc1cccc(NC(=O)C2CCN(S(C)(=O)=O)c3ccccc3O2)c1` (stereo not given) the figure was 830 s. In the case of `CC(C)NC(=O)c1n[nH]c2c1CCCC2` it was 662 s; in that of `CCOc1ccc(NC(=O)CNC(=O)C2CCCCC2)cc1`, 733 s.

For the molecule `Cc1nc(-c2cc3cccc(C)c3nc2NCCc2ccccn2)no1`, the RP-LC retention time was 764 s. With `CCNC(=O)Nc1ccc(OCC(=O)NCc2cc(OC)cc(OC)c2)nc1` the figure was 691 s; with `Cc1ccc(-c2nc3ncccn3c2Nc2ccc(Cl)cc2)cc1`, 827 s. With `Cc1ccc2cc(CCC(=O)NCc3ccc(N4CCOCC4)cc3)c(=O)[nH]c2c1`, the RP-LC retention time came out at 655 s.

In turn, `O=C(NCCc1ccccc1)N1CCC(n2c(-c3ccoc3)nc3cccnc32)C1` (stereo not given) returned an RP-LC retention time of 725 s.

Molecule `CCOc1ccc(Nc2c(-c3ccccc3)nc3cnccn23)cc1` yielded an RP-LC retention time of 877 s. For the molecule `CCOc1nccnc1N1CCC(N(C)C(=O)Cc2c(C)noc2C)C1` (stereo not given), the RP-LC retention time was 672 s. With `CC(C(=O)NN1CCOCC1)n1nc(-c2ccco2)ccc1=O` (stereo not given) the figure was 584 s; with `COc1ccc2[nH]c(=O)c(CCC(=O)N(C)CCc3ccncc3)cc2c1`, 589 s.

In turn, `CCn1cc(C2=CCN(S(=O)(=O)c3ccc(C)c(Cl)c3)CC2)c2cccnc21` had an RP-LC retention time of 1180 s.

Regarding `CN1CCN(CCNC(=O)C2CCc3sc(C(=O)N4CCCC4)cc3C2)CC1` (stereo not given), the RP-LC retention time came to 569 s. With `CO[C@@H](C(=O)N1Cc2[nH]nc(NC(=O)c3ccc(N4CCN(C)CC4)cc3)c2C1)c1ccccc1`, the RP-LC retention time came out at 614 s. `O=C1COc2ccc(Cl)cc2N1Cc1nc(-c2cccc(-c3csc(C4CC4)n3)c2)no1` registered an RP-LC retention time of 1300 s. As to `O=c1c2ccccc2n(Cc2nc(-c3ccc(C(F)(F)F)cc3)no2)c(=O)n1CC1CCCO1` (stereo not given), the RP-LC retention time stood at 1100 s. `O=C(NCCc1c[nH]c2ccc(F)cc12)c1cncc(Br)c1`: the RP-LC retention time is 796 s. In the case of `CCN1CCCC(C(=O)NCc2cccs2)(c2ccccc2)CC1` (stereo not given) it was 643 s; in that of `O=C(CSc1nnc(-c2ccccc2F)o1)N1CCCc2ccccc21`, 872 s; in that of `CCc1noc(NC(C)=O)c1-c1ccc(OC)c(S(=O)(=O)Nc2cccc(Cl)c2)c1`, 831 s. With `CCC(C)Nc1cc(C)nc2c(C)c(-c3ccc(Cl)cc3)nn12` (stereo not given) the figure was 807 s; with `Cc1oc2ccn(Cc3cccc(F)c3)c(=O)c2c1C(=O)N(C)Cc1ccccc1`, 898 s; with `Cc1scc2nc(C(=O)NCc3ccc(F)cc3)nc(N3CCCC3)c12`, 561 s. In the case of `O=C(NCCOc1ccc(-c2ccccc2)nn1)c1ccc(=O)[nH]n1` it was 600 s; in that of `Cc1c(Cl)cccc1S(=O)(=O)N1CCc2c(c(-c3nnc(-c4ccccc4)o3)nn2C)C1`, 1060 s. As to `CCN1CCN(C(=O)c2cc3c(=O)n(Cc4ccco4)ccc3nc2C)CC1`, the RP-LC retention time was 664 s. In the case of `CCOC(=O)c1ccc(NS(=O)(=O)c2cc3n(c2)CCCN(C)C3=O)cc1` it was 711 s; in that of `O=C1NC(C(=O)NCCCn2cccn2)Cn2cccc21` (stereo not given), 585 s. With `CNC(=O)N1CCCC(c2cccc(C(=O)NCc3ccc(Br)cc3)c2)C1` (stereo not given) the figure was 830 s; with `CSc1ccc(-c2nc3cnccn3c2Nc2ccc(Cl)cc2)cc1`, 1010 s. With `Cc1nc(-c2ccc(F)cc2)nc2c1CCC(=O)N2Cc1ccco1` the figure was 720 s; with `O=c1cccnn1CCNS(=O)(=O)c1cccnc1`, 565 s; with `CC1(C)CC(=O)c2cn(-c3ccc(F)cc3)c(=O)c(C(=O)N3CCCC3)c2C1`, 729 s. `Cc1ccc(CC(=O)Nc2ccc(-c3nc(Cn4nc(C)cc4C)c(C)o3)cc2)cc1` came in with an RP-LC retention time of 559 s. In the case of `CC1=NS(=O)(=O)N(Cc2ccccc2)C=C1C(=O)OCc1ccccc1C` it was 1170 s; in that of `O=c1[nH]c2ccc(NCc3ccc(-c4ccccc4F)o3)cc2[nH]1`, 687 s. In the case of `COc1ccc(NC(=O)N2[C@H]3CC[C@@H]2c2cnc(-c4ccc(F)cc4)nc2C3)cc1OC` it was 875 s. With `O=C(c1ccc2ncnc(N3CCCC3)c2c1)N1CCCC1`, the RP-LC retention time was 580 s.

The record behind these values is the METLIN SMRT retention time set (Domingo-Almenara et al. 2019).
